Test results taken from patent US20250206730A1 (AUTOTELIC BIO INC., priority 2022, published 2025).

What was measured:
[1] = tested on: TGF-β signaling; experiment: Assay for evaluating cellular inhibition of TGF-β signaling, 4T1 (SBE-luc2P) luciferase reporter; assay type: cell-based; settings: Mus musculus, 4T1, 4T1 (SBE-luc2P) transient pool, 0.2% FBS, 2 h pre-treatment, TGF-β1 2 ng/mL 24 h; read-out: IC50 4T1 Cell
How it was run: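 Luminescence from SMAD-binding-element luciferase was measured after 24 h of 2 ng/mL TGF-β1 at 37 °C, following 2 h compound pre-treatment. HEK293 stable reporter cells were used at 2.5×10^4/well in 0.5% FBS (~80% confluent); the 4T1 SBE-luc2P transient pool at 6×10^3/well in 0.2% FBS (~60% confluent).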

[2] = target: T1, ALK5 kinase (Homo sapiens, UniProt P36897); experiment: LanthaScreen Eu Kinase Binding Assay; settings: Kinase Tracer 178, Eu-anti-GST Antibody, read-out: IC50 Enzyme
T1 sequence (P36897 34-503): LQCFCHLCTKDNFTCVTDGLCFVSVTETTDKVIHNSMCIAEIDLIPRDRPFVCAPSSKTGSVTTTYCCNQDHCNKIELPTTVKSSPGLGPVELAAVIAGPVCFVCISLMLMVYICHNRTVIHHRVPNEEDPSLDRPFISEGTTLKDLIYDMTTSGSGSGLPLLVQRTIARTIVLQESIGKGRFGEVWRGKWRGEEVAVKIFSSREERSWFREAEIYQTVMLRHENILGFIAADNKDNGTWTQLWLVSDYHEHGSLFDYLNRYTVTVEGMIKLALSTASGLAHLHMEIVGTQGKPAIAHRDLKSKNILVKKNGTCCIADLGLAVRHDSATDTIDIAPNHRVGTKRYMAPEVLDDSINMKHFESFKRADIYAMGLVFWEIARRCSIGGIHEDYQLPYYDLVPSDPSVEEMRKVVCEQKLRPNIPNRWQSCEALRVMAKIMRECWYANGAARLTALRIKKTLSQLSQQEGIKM
How it was run: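 Tracer-displacement TR-FRET: after 30 min RT compound–kinase preincubation, Eu-labelled anti-GST antibody plus Kinase Tracer 178 were incubated 60 min at RT. Binding was read as a lower 665 nm/615 nm emission ratio (excitation 340 nm).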

Structure (SMILES) | IC50 [1] | IC50 [2]
CN(C)c1nc(-c2ccccc2)c(Oc2ccnc(Nc3cccc(S(N)(=O)=O)c3)c2)s1 [A-154, 3-((4-((2-(Dimethylamino)-4-phenylthiazol-5-yl)oxy)pyridin-2-yl)amino)benzenesulfonamide] | > 100 nM | < 100 nM
CN(C)c1nc(-c2ccccc2)c(Oc2ccnc(Nc3cccc(C(N)=O)c3)c2)s1 [A-155, 3-((4-((2-(Dimethylamino)-4-phenylthiazol-5-yl)oxy)pyridin-2-yl)amino)benzamide] | < 100 nM | < 100 nM
CN(C)c1nc(-c2ccccc2)c(Oc2ccnc(Nc3ccc(S(N)(=O)=O)cc3)c2)s1 [A-156, 4-((4-((2-(Dimethylamino)-4-phenylthiazol-5-yl)oxy)pyridin-2-yl)amino)benzenesulfonamide] | > 100 nM | < 100 nM
CN(C)c1nc(-c2ccccc2)c(Oc2ccnc(Nc3ccc(C(N)=O)cc3)c2)s1 [A-157, 4-((4-((2-(Dimethylamino)-4-phenylthiazol-5-yl)oxy)pyridin-2-yl)amino)benzamide] | < 100 nM | < 100 nM
CN(C)c1nc(-c2ccccc2)c(Oc2ccnc(Nc3ccnc(C(C)(C)O)c3)c2)s1 [A-158, 2-(4-((4-((2-(Dimethylamino)-4-phenylthiazol-5-yl)oxy)pyridin-2-yl)amino)pyridin-2-yl)propan-2-ol] | > 100 nM | < 100 nM
CN(C)c1nc(-c2ccccc2)c(Oc2ccnc(Nc3ccc(C(C)(C)O)nc3)c2)s1 [A-159, 2-(5-((4-((2-(Dimethylamino)-4-phenylthiazol-5-yl)oxy)pyridin-2-yl)amino)pyridin-2-yl)propan-2-ol] | > 100 nM | < 100 nM
CN(C)c1nc(-c2ccccc2)c(Oc2ccnc(Nc3cccc(C(N)=O)n3)c2)s1 [A-160, 6-((4-((2-(Dimethylamino)-4-phenylthiazol-5-yl)oxy)pyridin-2-yl)amino)picolinamide] | < 100 nM | < 100 nM
CNC(=O)c1cccc(Nc2cc(Oc3sc(N(C)C)nc3-c3ccccc3)ccn2)n1 [A-161, 6-((4-((2-(Dimethylamino)-4-phenylthiazol-5-yl)oxy)pyridin-2-yl)amino)-N-methylpicolinamide] | < 100 nM | < 100 nM
CN(C)c1nc(-c2ccccc2)c(Oc2ccnc(Nc3ccc(C(N)=O)cn3)c2)s1 [A-163, 6-((4-((2-(Dimethylamino)-4-phenylthiazol-5-yl)oxy)pyridin-2-yl)amino)nicotinamide] | < 100 nM | < 100 nM
CNC(=O)c1ccc(Nc2cc(Oc3sc(N(C)C)nc3-c3ccccc3)ccn2)cc1 [A-164, 4-((4-((2-(Dimethylamino)-4-phenylthiazol-5-yl)oxy)pyridin-2-yl)amino)-N-methylbenzamide] | > 100 nM | < 100 nM
CN(C)c1nc(-c2ccccc2)c(Oc2ccnc(Nc3ccc(C(=O)O)cn3)c2)s1 [A-165, 6-((4-((2-(Dimethylamino)-4-phenylthiazol-5-yl)oxy)pyridin-2-yl)amino)nicotinic acid] | < 100 nM | < 100 nM
CNC(=O)c1ccc(Nc2cc(Oc3sc(N(C)C)nc3-c3ccccc3)ccn2)nc1 [A-166, 6-((4-((2-(Dimethylamino)-4-phenylthiazol-5-yl)oxy)pyridin-2-yl)amino)-N-methylnicotinamide] | < 100 nM | < 100 nM
CN(C)c1nc(-c2ccccc2)c(Oc2ccnc(Nc3cccc(C(=O)O)c3)c2)s1 [A-167, 3-((4-((2-(Dimethylamino)-4-phenylthiazol-5-yl)oxy)pyridin-2-yl)amino)benzoic acid] | > 100 nM | < 100 nM
CN(C)c1nc(-c2ccccc2)c(Oc2ccnc(Nc3ccc(C(=O)O)cc3)c2)s1 [A-168, 4-((4-((2-(Dimethylamino)-4-phenylthiazol-5-yl)oxy)pyridin-2-yl)amino)benzoic acid] | < 100 nM | < 100 nM
CN(C)c1nc(-c2ccccc2)c(Oc2ccnc(Nc3cccc(C(=O)O)n3)c2)s1 [A-169, 6-((4-((2-(Dimethylamino)-4-phenylthiazol-5-yl)oxy)pyridin-2-yl)amino)picolinic acid] | > 100 nM | < 100 nM
COC(=O)c1cccc(Nc2cc(Oc3sc(Br)nc3-c3ccccc3)ccn2)c1 [A-170, Methyl 3-((4-((2-bromo-4-phenylthiazol-5-yl)oxy)pyridin-2-yl)amino)benzoate] | > 100 nM | < 100 nM
O=C(O)c1cccc(Nc2cc(Oc3sc(Br)nc3-c3ccccc3)ccn2)c1 [A-171, 3-((4-((2-Bromo-4-phenylthiazol-5-yl)oxy)pyridin-2-yl)amino)benzoic acid] | > 100 nM | < 100 nM
NC(=O)c1cccc(Nc2cc(Oc3sc(Br)nc3-c3ccccc3)ccn2)c1 [A-172, 3-((4-((2-Bromo-4-phenylthiazol-5-yl)oxy)pyridin-2-yl)amino)benzamide] | > 100 nM | > 100 nM
O=C(O)c1ccc(Nc2cc(Oc3sc(C4CCCC4)nc3-c3ccccc3)ccn2)nc1 [A-174, 6-((4-((2-Cyclopentyl-4-phenylthiazol-5-yl)oxy)pyridin-2-yl)amino)nicotinic acid] | > 100 nM | < 100 nM
O=C(O)c1ccc(Nc2cc(Oc3sc(C4CCCC4)nc3-c3ccccc3)ccn2)cc1 [A-175, 4-((4-((2-Cyclopentyl-4-phenylthiazol-5-yl)oxy)pyridin-2-yl)amino)benzoic acid] | > 100 nM | < 100 nM
CNC(=O)c1ccc(Nc2cc(Oc3sc(C4CCCC4)nc3-c3ccccc3)ccn2)nc1 [A-176, 6-((4-((2-Cyclopentyl-4-phenylthiazol-5-yl)oxy)pyridin-2-yl)amino)-N-methylnicotinamide] | > 100 nM | > 100 nM
NC(=O)c1ccc(Nc2cc(Oc3sc(C4CCCCC4)nc3-c3ccccc3)ccn2)nc1 [A-177, 6-((4-((2-Cyclohexyl-4-phenylthiazol-5-yl)oxy)pyridin-2-yl)amino)nicotinamide] | > 100 nM | > 100 nM
O=C(O)c1ccc(Nc2cc(Oc3sc(C4CCCCC4)nc3-c3ccccc3)ccn2)nc1 [A-178, 6-((4-((2-cyclohexyl-4-phenylthiazol-5-yl)oxy)pyridin-2-yl)amino)nicotinic acid] | > 100 nM | > 100 nM
O=C(O)c1ccc(Nc2cc(Oc3sc(C4CCCCC4)nc3-c3ccccc3)ccn2)cc1 [A-179, 4-((4-((2-Cyclohexyl-4-phenylthiazol-5-yl)oxy)pyridin-2-yl)amino)benzoic acid] | > 100 nM | > 100 nM
CNC(=O)c1ccc(Nc2cc(Oc3sc(C4CCCCC4)nc3-c3ccccc3)ccn2)nc1 [A-180, 6-((4-((2-Cyclohexyl-4-phenylthiazol-5-yl)oxy)pyridin-2-yl)amino)-N-methylnicotinamide] | > 100 nM | > 100 nM
CCc1nc(-c2ccccc2)c(Oc2ccnc(Nc3cccc(S(N)(=O)=O)c3)c2)s1 [A-181, 3-((4-((2-Ethyl-4-phenylthiazol-5-yl)oxy)pyridin-2-yl)amino)benzenesulfonamide] | < 100 nM | < 100 nM
CCc1nc(-c2ccccc2)c(Oc2ccnc(Nc3cccc(C(C)(C)O)c3)c2)s1 [A-182, 2-(3-((4-((2-Ethyl-4-phenylthiazol-5-yl)oxy)pyridin-2-yl)amino)phenyl)propan-2-ol] | > 100 nM | < 100 nM
